The text below walks through data of US20220081422A1 (Janssen Biotech, Inc., priority 2019, published 2022).

In general, IC50 refers to the concentration that inhibits the measured activity by half.

One assay has as its system MOLM-13 cells. Briefly: MOLM-13 cellular assay (CellTiter-Glo cell viability). It is filed as cell-based. The conditions noted are these: 72 hours exposure, cell viability by CellTiter-Glo. The gist of the method:
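Cells seeded at 5,000/well and exposed to graded compound concentrations for 72 h at 37° C, 5% CO2 immediately after seeding. Viability read by CellTiter-Glo luminescence.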
A general note: In ATP-based viability assays light output follows the ATP content of the culture.

In the next assay the target is T1, human DHODH (Homo sapiens, UniProt Q02127).
T1 construct: purchased Proteros PR-0044
Briefly: DHODH enzymatic assay (DCIP absorbance, end-point). It is filed as biochemical. Particulars: purified human DHODH, DCIP as final electron acceptor, end-point mode; read-out: hDHODH IC50. In a few lines: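 Purified human DHODH; end-point absorbance of DCIP reduction as terminal electron acceptor. Reaction started with substrate mix of 20 mM DHO, 5 mM CoQ6, 1 mM DCIP (substrate-solution concentrations) in […] pH 7.5, 150 mM NaCl, 0.5 mM EDTA, 0.1% Triton X-100.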

T1 sequence (Q02127 whole entry): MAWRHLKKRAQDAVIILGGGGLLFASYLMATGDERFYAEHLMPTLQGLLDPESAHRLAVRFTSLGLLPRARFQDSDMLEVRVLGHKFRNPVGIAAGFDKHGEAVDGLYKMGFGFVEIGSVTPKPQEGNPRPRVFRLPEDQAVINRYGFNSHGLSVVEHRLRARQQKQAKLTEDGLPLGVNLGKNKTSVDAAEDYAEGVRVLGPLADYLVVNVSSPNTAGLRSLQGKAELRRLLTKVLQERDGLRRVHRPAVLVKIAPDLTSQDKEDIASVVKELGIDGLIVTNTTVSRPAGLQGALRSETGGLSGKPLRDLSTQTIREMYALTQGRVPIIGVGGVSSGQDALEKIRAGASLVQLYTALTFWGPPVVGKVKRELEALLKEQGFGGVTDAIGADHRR

For `CCC[C@H](C)N1CN(c2c(F)cccc2Cl)C(=O)c2cc(F)c(-n3nc(CO)n(CC)c3=O)cc21` [Example 15, (S)-3-(2-Chloro-6-fluorophenyl)-7-(4-ethyl-3-(hydroxymethyl)-5-oxo-4,5-dihydro-1H-1,2,4-triazol-1-yl)-6-fluoro-1-(pentan-2-yl)-2,3-dihydroquinazolin-4(1H)-one], the IC50 with MOLM-13 cells (Homo sapiens, MOLM-13, 72 h) was less than 1.69 nM; on human DHODH, 0.3 nM.
Regarding `C=C(C)[C@@H]1CN(c2c(C)cnc(OC)c2C)C(=O)c2cc(F)c(-n3nc(CO)n(CC)c3=O)cc21` (single isomer, unassigned; atropisomer 1) [Example 54, Atropisomer 1, (S*)-6-(4-Ethyl-3-(hydroxymethyl)-5-oxo-4,5-dihydro-1H-1,2,4-triazol-1-yl)-7-fluoro-2-(2-methoxy-3,5-dimethylpyridin-4-yl)-4-(prop-1-en-2-yl)-3,4-dihydroisoquinolin-1 (2H)-one], the IC50 in the assay with MOLM-13 cells is 2.2 nM; on human DHODH, 20 nM.
On to `CC[C@H](C)N1CN(c2c(F)cccc2Cl)C(=O)c2cc(F)c(-n3nc(CO)n(CC)c3=O)nc21` [Example 31, (S)-1-(sec-Butyl)-3-(2-chloro-6-fluorophenyl)-7-(4-ethyl-3-(hydroxymethyl)-5-oxo-4,5-dihydro-1H-1,2,4-triazol-1-yl)-6-fluoro-2,3-dihydropyrido[2,3-d]pyrimidin-4(1H)-one], for which the IC50 with MOLM-13 cells (Homo sapiens, MOLM-13, 72 h) is 0.962 nM; at human DHODH, 0.7 nM.
For `CC[C@H](C)N1CN(c2c(F)cccc2Cl)C(=O)c2cc(F)c(-n3nc(CO)n(CC)c3=O)cc21` [Example 16, (S)-1-(sec-Butyl)-3-(2-chloro-6-fluorophenyl)-7-(4-ethyl-3-(hydroxymethyl)-5-oxo-4,5-dihydro-1H-1,2,4-triazol-1-yl)-6-fluoro-2,3-dihydroquinazolin-4(1H)-one] the same measures were less than 1.69 nM and 0.3 nM.
For the compound `C=C(C)C1CN(c2ccccc2C)C(=O)c2cc(F)c(-n3nc(CO)n(CC)c3=O)cc21` (single isomer, unassigned) [Example 42, (R *)-6-(4-Ethyl-3-(hydroxymethyl)-5-oxo-4,5-dihydro-1H-1,2,4-triazol-1-yl)-7-fluoro-4-(prop-1-en-2-yl)-2-(o-tolyl)-3,4-dihydroisoquinolin-1(2H)-one], the IC50 in the assay on MOLM-13 cells is 6.79 nM; on human DHODH, 4 nM.
For `CC[C@H](C)[C@H]1CN(c2c(F)cccc2Cl)C(=O)c2cc(F)c(-n3nc(CO)n(CC)c3=O)cc21` (relative stereo) [Example 71, (R*)-4-((S *)-sec-B utyl)-2-(2-chloro-6-fluorophenyl)-6-(4-ethyl-3-(hydroxymethyl)-5-oxo-4,5-dihydro-1H-1,2,4-triazol-1-yl)-7-fluoro-3,4-dihydroisoquinolin-1(2H)-one], the IC50 amounted to 4.3 nM with MOLM-13 cells (Homo sapiens, MOLM-13, 72 h) and 4 nM on human DHODH.
Taken in the same sequence, the figures for `CCn1c(CO)nn(-c2cc3c(cc2F)C(=O)N(c2c(F)cccc2Cl)C(C)(C)N3C(C)C)c1=O` [Example 3, 3-(2-Chloro-6-fluorophenyl)-7-(4-ethyl-3-(hydroxymethyl)-5-oxo-4,5-dihydro-1H-1,2,4-triazol-1-yl)-6-fluoro-1-isopropyl-2,2-dimethyl-2,3-dihydroquinazolin-4 (1H)-one] were 440 nM and 1040 nM.
Regarding `C=C(C)[C@@H]1CN(c2c(C)cnc(OC)c2Cl)C(=O)c2cc(F)c(-n3nc(CO)n(CC)c3=O)cc21` (single isomer, unassigned; atropisomer 1) [Example 62, Atropisomer 1, (S*)-2-(3-Chloro-2-methoxy-5-methylpyridin-4-yl)-6-(4-ethyl-3-(hydroxymethyl)-5-oxo-4,5-dihydro-1H-1,2,4-triazol-1-yl)-7-fluoro-4-(prop-1-en-2-yl)-3,4-dihydroisoquinolin-1(2H)-one], the IC50 in the assay with MOLM-13 cells amounted to 0.793 nM; at human DHODH it was 2 nM.
`CCn1c(CO)nn(-c2cc3c(cc2F)C(=O)N(c2c(F)cccc2Cl)CN3[C@@H](C)C2CCCCC2)c1=O` [Example 17, (S)-3-(2-Chloro-6-fluorophenyl)-1-(1-cyclohexylethyl)-7-(4-ethyl-3-(hydroxymethyl)-5-oxo-4,5-dihydro-1H-1,2,4-triazol-1-yl)-6-fluoro-2,3-dihydroquinazolin-4(1H)-one]: the 50% inhibitory concentration (IC50) in the assay on MOLM-13 cells (Homo sapiens, MOLM-13, 72 h) was less than 1.69 nM; at human DHODH, 0.1 nM.
For `C=C(C)C1CN(c2c(F)cccc2Cl)C(=O)c2cc(F)c(-n3nc(CO)n(CC)c3=O)cc21` (single isomer, unassigned) [Example 69, (S*)-2-(2-Chloro-6-fluorophenyl)-6-(4-ethyl-3-(hydroxymethyl)-5-oxo-4,5-dihydro-1H-1,2,4-triazol-1-yl)-7-fluoro-4-(prop-1-en-2-yl)-3,4-dihydroisoquinolin-1(2H)-one], the concentration for half-maximal inhibition (IC50) in the assay on MOLM-13 cells is less than 1.69 nM; on human DHODH it was 0.3 nM.
For the compound `CCn1c(CO)nn(-c2nc3c(cc2F)C(=O)N(c2c(F)cccc2Cl)CN3[C@@H](C)C(F)(F)F)c1=O` [Example 8, (S)-3-(2-Chloro-6-fluorophenyl)-7-(4-ethyl-3-(hydroxymethyl)-5-oxo-4,5-dihydro-1H-1,2,4-triazol-1-yl)-6-fluoro-1-(1,1,1-trifluoropropan-2-yl)-2,3-dihydropyrido[2,3-d]pyrimidin-4(1H)-one], the half-inhibitory concentration (IC50) is 1.7 nM with MOLM-13 cells (Homo sapiens, MOLM-13, 72 h) and less than 0.5 nM on human DHODH.
Taken in the same sequence, the figures for `CCCCN1CN(c2c(F)cccc2Cl)C(=O)c2cc(F)c(-n3nc(CO)n(CC)c3=O)cc21` [Example 20, 1-Butyl-3-(2-chloro-6-fluorophenyl)-7-(4-ethyl-3-(hydroxymethyl)-5-oxo-4,5-dihydro-1H-1,2,4-triazol-1-yl)-6-fluoro-2,3-dihydroquinazolin-4(1H)-one] were 10.2 nM and 5 nM.
Take `CCn1c(CO)nn(-c2cc3c(cc2F)C(=O)N(c2ccccc2Cl)CC3C(C)C)c1=O` (single isomer, unassigned) [Example 37, (R *)-2-(2-Chlorophenyl)-6-(4-ethyl-3-(hydroxymethyl)-5-oxo-4,5-dihydro-1H-1,2,4-triazol-1-yl)-7-fluoro-4-isopropyl-3,4-dihydroisoquinolin-1(2H)-one]: the figures for the IC50 with MOLM-13 cells and at human DHODH were 15.5 nM and 20 nM, respectively.
As for `CCn1c(CO)nn(-c2cc3c(cc2F)C(=O)N(c2c(C)ccnc2Cl)CN3C(C)C)c1=O` [Example 28, 3-(2-Chloro-4-methylpyridin-3-yl)-7-(4-ethyl-3-(hydroxymethyl)-5-oxo-4,5-dihydro-1H-1,2,4-triazol-1-yl)-6-fluoro-1-isopropyl-2,3-dihydroquinazolin-4(1H)-one], the IC50 in the assay on MOLM-13 cells (Homo sapiens, MOLM-13, 72 h) was 36.1 nM; on human DHODH it was 20 nM.
Taken in the same sequence, the figures for `CCn1c(CO)nn(-c2cc3c(cc2F)C(=O)N(c2c(F)cccc2Cl)CN3C2CCC2)c1=O` [Example 19, 3-(2-Chloro-6-fluorophenyl)-1-cyclobutyl-7-(4-ethyl-3-(hydroxymethyl)-5-oxo-4,5-dihydro-1H-1,2,4-triazol-1-yl)-6-fluoro-2,3-dihydroquinazolin-4(1H)-one] were 2.57 nM and 3 nM.
Consider `CCn1c(CO)nn(-c2cc3c(cc2F)C(=O)N(c2cc(C)ccc2F)CN3C(C)C)c1=O` [Example 26, 7-(4-Ethyl-3-(hydroxymethyl)-5-oxo-4,5-dihydro-1H-1,2,4-triazol-1-yl)-6-fluoro-3-(2-fluoro-5-methylphenyl)-1-isopropyl-2,3-dihydroquinazolin-4(1H)-one], for which the IC50 turned out to be 27.5 nM in the assay with MOLM-13 cells (Homo sapiens, MOLM-13, 72 h) and 20 nM at human DHODH.
